target: T1, enképhalinase purifiée du rein de lapin (Oryctolagus cuniculus, UniProt P08049); assay: Inhibitory power on enkephalinase (endopeptidase), substrate [3H]D-Ala2-Leu5 enkephalin; type: biochemical; settings: purified rabbit kidney enzyme, 20 min at 25°C, Tris-HCl pH 7.4; read-out: Enképhalinase(M), concentrations inhibitrices 50 % (converted)
T1 construct: l'enképhalinase purifiée du rein de lapin; from tissue; host or cells: rabbit kidney
T1 sequence (P08049 1-750): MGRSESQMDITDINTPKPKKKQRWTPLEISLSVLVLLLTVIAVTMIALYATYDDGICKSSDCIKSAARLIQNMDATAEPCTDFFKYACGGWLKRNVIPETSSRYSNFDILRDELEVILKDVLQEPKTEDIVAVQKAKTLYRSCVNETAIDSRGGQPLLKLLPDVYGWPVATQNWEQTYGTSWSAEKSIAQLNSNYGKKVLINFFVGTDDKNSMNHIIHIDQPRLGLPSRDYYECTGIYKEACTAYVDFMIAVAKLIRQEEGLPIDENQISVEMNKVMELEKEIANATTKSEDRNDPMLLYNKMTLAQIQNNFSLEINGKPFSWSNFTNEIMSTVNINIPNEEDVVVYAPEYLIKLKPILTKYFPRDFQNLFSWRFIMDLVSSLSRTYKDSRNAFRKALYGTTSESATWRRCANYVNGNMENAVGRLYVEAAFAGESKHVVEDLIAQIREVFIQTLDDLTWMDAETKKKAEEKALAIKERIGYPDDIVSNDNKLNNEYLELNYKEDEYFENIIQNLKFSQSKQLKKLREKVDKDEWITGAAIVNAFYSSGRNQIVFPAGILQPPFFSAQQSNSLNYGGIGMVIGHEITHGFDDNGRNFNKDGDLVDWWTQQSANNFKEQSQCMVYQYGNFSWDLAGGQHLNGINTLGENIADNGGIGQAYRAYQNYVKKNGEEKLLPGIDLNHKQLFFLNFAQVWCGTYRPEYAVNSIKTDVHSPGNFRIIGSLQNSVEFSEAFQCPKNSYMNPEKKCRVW
Description: Le pouvoir inhibiteur est déterminé sur de l'enképhalinase purifiée du rein de lapin en suivant le protocole décrit dans la littérature (Llorens, C., B. Malfroy, J.C. Schwartz, G. Gacel, B.P. Roques et al., 1982, J. Neurochem. 39, 1081).
Après une pré-incubation de 15 minutes à 25°C, une aliquote de protéines est incubée pendant 20 minutes à 25°C en présence de 20 nanomoles de [³H]D-Ala²-Leu⁵ enképhaline et du produit à tester dans le tampon Tris-HCl (pH 7.4) 50 mM. On arrête la réaction par addition d'HCl 0.2 N. Le métabolite tritié [³H]Tyr-D-Ala-Gly est séparé de la D-Ala²-Leu⁵-enképhaline par chromatographie sur colonne de porapak.
(§1) L'activité des différents produits est exprimée en concentrations inhibitrices 50 %.

First: O=C(O)CCNC(=O)C(CC(=O)NO)Cc1ccccc1 (racemic) [compound 1, N[N(hydroxy)amino-carbonyl-3 benzyl-2 Oxo-1 propyl] β-alanine]
Second: CC(CC(=O)O)NC(=O)C(CC(=O)NO)Cc1ccccc1 (stereo not drawn) [compound 2, N[N(hydroxy)aminocarbonyl-3 benzyl-2 oxo-1 propyl] methyl-3 β alanine]
The IC50 of the first is 2.5-fold lower: 2e-09 M for the first, 5e-09 M for the second.

`CC(CNC(=O)C(CC(=O)NO)Cc1ccccc1)C(=O)O` (stereo not drawn) [compound 3, N[N(hydroxy)aminocarbonyl-3 benzyl-2 oxo-1 propyl] methyl-2 β alanine] and `O=C(O)C[C@H](Cc1ccccc1)NC(=O)[C@@H](CC(=O)NO)Cc1ccccc1` [compound 5, N[N(hydroxy)aminocarbonyl-3 benzyl-2 oxo-1 propyl] benzyl-3 β alanine] are the same in IC50: 2e-09 M for the first, 2e-09 M for the second.

Going from `O=C(O)CCC(=O)N[C@@H](CC(=O)NO)Cc1ccccc1` [compound 8, N[carboxy-3 oxo-1 propyl) amino]-3 phenyl-4 (Nʹ[hydroxyamino]-1 oxo-1 butane] to `CC(CC(=O)O)C(=O)N[C@@H](CC(=O)NO)Cc1ccccc1` (stereo partly shown) [compound 9], the IC50 falls from 1.4e-09 M to 9e-10 M (1.6-fold).

Going from `CC(CC(=O)NC(CC(=O)NOCc1ccccc1)Cc1ccccc1)C(=O)O` (stereo not shown) [compound 10] to “Acide N[(hydroxy amino carbonyl)-3 benzyl-2 oxo-1 propyl] amino-2 cyclohéxane carboxylique [compound 7]”, the IC50 rises from 5e-10 M to 4e-09 M (8-fold).

First: Acide [N[N(hydroxyamino) carbonyl-1 phényl-3] propyl]-2 carboxamido-2 cyclohéxanoïque [compound 11]
Second: N[N-hydroxyamino) carbonyl-3 benzyl-2 oxo-1 propyl] phényl-2 β-alanine [compound 6]
The IC50 of the first is 3-fold lower: 5e-10 M for the first, 1.5e-09 M for the second.

target: T2, aminopeptidase purifiée du rein de lapin (Oryctolagus cuniculus, UniProt P15541); assay: Inhibitory power on aminopeptidase, substrate [3H]Leu5-enkephalin; type: biochemical; settings: purified rabbit kidney enzyme, [3H]Leu5-enkephalin substrate; read-out: Aminopeptidase(M), concentrations inhibitrices 50 % (converted)
T2 construct: purifiée du rein de lapin; from tissue; host or cells: rabbit kidney
T2 sequence (P15541 1-966): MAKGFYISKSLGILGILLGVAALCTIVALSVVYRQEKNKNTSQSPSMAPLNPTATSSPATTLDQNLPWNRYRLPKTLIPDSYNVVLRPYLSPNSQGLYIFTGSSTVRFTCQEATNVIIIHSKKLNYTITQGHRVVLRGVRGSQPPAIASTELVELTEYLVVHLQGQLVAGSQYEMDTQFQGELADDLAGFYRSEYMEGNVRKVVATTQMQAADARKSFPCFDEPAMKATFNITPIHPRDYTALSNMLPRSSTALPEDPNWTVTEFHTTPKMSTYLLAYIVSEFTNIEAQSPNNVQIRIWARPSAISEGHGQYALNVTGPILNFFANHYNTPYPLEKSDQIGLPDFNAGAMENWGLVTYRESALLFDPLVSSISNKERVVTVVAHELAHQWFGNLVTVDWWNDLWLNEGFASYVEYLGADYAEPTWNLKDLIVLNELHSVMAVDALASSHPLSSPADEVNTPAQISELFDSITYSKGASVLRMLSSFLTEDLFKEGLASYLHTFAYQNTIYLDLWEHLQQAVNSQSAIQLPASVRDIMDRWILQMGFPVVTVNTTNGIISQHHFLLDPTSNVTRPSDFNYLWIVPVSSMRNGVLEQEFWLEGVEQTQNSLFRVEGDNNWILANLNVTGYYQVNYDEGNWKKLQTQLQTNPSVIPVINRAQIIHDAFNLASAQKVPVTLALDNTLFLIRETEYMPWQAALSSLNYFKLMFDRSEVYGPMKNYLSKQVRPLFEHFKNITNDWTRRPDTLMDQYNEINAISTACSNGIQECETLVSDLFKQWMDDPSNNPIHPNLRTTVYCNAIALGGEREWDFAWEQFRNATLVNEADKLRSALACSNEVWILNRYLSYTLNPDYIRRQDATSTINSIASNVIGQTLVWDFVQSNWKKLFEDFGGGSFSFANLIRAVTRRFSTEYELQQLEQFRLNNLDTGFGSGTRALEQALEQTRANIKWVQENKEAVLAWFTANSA
Text: Le pouvoir inhibiteur est mesuré sur l'aminopeptidase purifiée du rein de lapin en suivant le protocole décrit dans la littérature (Romaine Bouboutou, Gilles Waksman, Joceyline Deim, Marie-Claude Fournié-Zaluski and Bernard P. Roques, Life Sciences, vol. 35, pp. 1023-1030, 1984).
Le dosage est conduit d'une manière identique au précédent, en utilisant la [³H]Leu⁵-enképhaline à la place de la [³H]D-Ala²-Leu⁵-enképhaline comme substrat.
as §1

Compared with `O=C(O)CCNC(=O)C(CC(=O)NO)Cc1ccccc1` (racemic) [compound 1, N[N(hydroxy)amino-carbonyl-3 benzyl-2 Oxo-1 propyl] β-alanine], `CC(CC(=O)O)NC(=O)C(CC(=O)NO)Cc1ccccc1` (stereo not drawn) [compound 2, N[N(hydroxy)aminocarbonyl-3 benzyl-2 oxo-1 propyl] methyl-3 β alanine] is 1.7-fold lower in IC50: 5e-07 M for the first, 3e-07 M for the second.

Going from `CC(CNC(=O)C(CC(=O)NO)Cc1ccccc1)C(=O)O` (stereo not drawn) [compound 3, N[N(hydroxy)aminocarbonyl-3 benzyl-2 oxo-1 propyl] methyl-2 β alanine] to `O=C(O)C[C@H](Cc1ccccc1)NC(=O)[C@@H](CC(=O)NO)Cc1ccccc1` [compound 5, N[N(hydroxy)aminocarbonyl-3 benzyl-2 oxo-1 propyl] benzyl-3 β alanine], the IC50 falls from 4e-07 M to 2e-08 M (20-fold).

`O=C(O)CCC(=O)N[C@@H](CC(=O)NO)Cc1ccccc1` [compound 8, N[carboxy-3 oxo-1 propyl) amino]-3 phenyl-4 (Nʹ[hydroxyamino]-1 oxo-1 butane] and `CC(CC(=O)O)C(=O)N[C@@H](CC(=O)NO)Cc1ccccc1` (stereo partly shown) [compound 9] are the same in IC50: 1e-05 M for the first, 1e-05 M for the second.

Going from `CC(CC(=O)NC(CC(=O)NOCc1ccccc1)Cc1ccccc1)C(=O)O` (stereo not shown) [compound 10] to “Acide N[(hydroxy amino carbonyl)-3 benzyl-2 oxo-1 propyl] amino-2 cyclohéxane carboxylique [compound 7]”, the IC50 falls from 4e-06 M to 5e-08 M (80-fold).

“Acide [N[N(hydroxyamino) carbonyl-1 phényl-3] propyl]-2 carboxamido-2 cyclohéxanoïque [compound 11]” and “N[N-hydroxyamino) carbonyl-3 benzyl-2 oxo-1 propyl] phényl-2 β-alanine [compound 6]” are within 1.5-fold of each other in IC50: 7e-08 M for the first, 8e-08 M for the second.

target: T3, dipeptidylaminopeptidase purifiée à partir du cerveau de rat (Rattus norvegicus, UniProt O55096); assay: Inhibitory power on dipeptidylaminopeptidase, substrate [3H]Leu5-enkephalin; type: biochemical; settings: enzyme purified from rat brain, [3H]Leu5-enkephalin substrate; read-out: Dipeptidyla-minopeptida-se(M), concentrations inhibitrices 50 % (converted)
T3 construct: purifiée à partir du cerveau de rat; from tissue; host or cells: rat brain
T3 sequence (O55096 2-738 limits assumed): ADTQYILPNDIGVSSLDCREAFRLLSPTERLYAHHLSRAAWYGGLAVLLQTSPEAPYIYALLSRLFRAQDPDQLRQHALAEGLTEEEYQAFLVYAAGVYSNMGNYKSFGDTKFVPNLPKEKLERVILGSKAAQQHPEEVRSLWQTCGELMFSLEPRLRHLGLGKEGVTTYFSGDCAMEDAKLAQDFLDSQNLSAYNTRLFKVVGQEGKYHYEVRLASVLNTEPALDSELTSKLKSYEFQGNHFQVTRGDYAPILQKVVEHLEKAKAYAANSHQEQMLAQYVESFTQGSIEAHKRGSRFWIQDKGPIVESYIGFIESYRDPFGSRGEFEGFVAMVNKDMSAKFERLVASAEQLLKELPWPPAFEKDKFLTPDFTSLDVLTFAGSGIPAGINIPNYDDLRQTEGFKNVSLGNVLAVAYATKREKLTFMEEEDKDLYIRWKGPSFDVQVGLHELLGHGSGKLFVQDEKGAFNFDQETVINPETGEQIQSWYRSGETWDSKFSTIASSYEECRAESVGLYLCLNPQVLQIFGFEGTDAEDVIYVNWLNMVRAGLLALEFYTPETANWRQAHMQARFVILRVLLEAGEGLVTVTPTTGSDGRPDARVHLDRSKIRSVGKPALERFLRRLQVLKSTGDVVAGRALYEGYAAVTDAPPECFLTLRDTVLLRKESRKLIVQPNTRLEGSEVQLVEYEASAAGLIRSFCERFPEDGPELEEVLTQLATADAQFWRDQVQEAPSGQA
Text: Le pouvoir inhibiteur est mesuré sur la dipeptidylaminopeptidase purifiée à partir du cerveau de rat en suivant le protocole décrit (Romaine Bouboutou, Gilles Waksman, Joceyline Deim, Marie-Claude Fournié-Zaluski and Bernard P. Roques, Life Sciences, vol. 35, pp. 1023-1030, 1984).. On utilise également la [³H]Leu⁵-enképhaline comme substrat.
as §1

Compared with `O=C(O)CCNC(=O)C(CC(=O)NO)Cc1ccccc1` (racemic) [compound 1, N[N(hydroxy)amino-carbonyl-3 benzyl-2 Oxo-1 propyl] β-alanine], `CC(CC(=O)O)NC(=O)C(CC(=O)NO)Cc1ccccc1` (stereo not drawn) [compound 2, N[N(hydroxy)aminocarbonyl-3 benzyl-2 oxo-1 propyl] methyl-3 β alanine] is 60-fold lower in IC50: 3e-08 M for the first, 5e-10 M for the second.

Going from `CC(CNC(=O)C(CC(=O)NO)Cc1ccccc1)C(=O)O` (stereo not drawn) [compound 3, N[N(hydroxy)aminocarbonyl-3 benzyl-2 oxo-1 propyl] methyl-2 β alanine] to `O=C(O)C[C@H](Cc1ccccc1)NC(=O)[C@@H](CC(=O)NO)Cc1ccccc1` [compound 5, N[N(hydroxy)aminocarbonyl-3 benzyl-2 oxo-1 propyl] benzyl-3 β alanine], the IC50 falls from 2e-08 M to 5e-10 M (40-fold).

Compared with `O=C(O)CCC(=O)N[C@@H](CC(=O)NO)Cc1ccccc1` [compound 8, N[carboxy-3 oxo-1 propyl) amino]-3 phenyl-4 (Nʹ[hydroxyamino]-1 oxo-1 butane], `CC(CC(=O)O)C(=O)N[C@@H](CC(=O)NO)Cc1ccccc1` (stereo partly shown) [compound 9] is 4.4-fold lower in IC50: 8e-07 M for the first, 1.8e-07 M for the second.

Compared with `CC(CC(=O)NC(CC(=O)NOCc1ccccc1)Cc1ccccc1)C(=O)O` (stereo not shown) [compound 10], “Acide N[(hydroxy amino carbonyl)-3 benzyl-2 oxo-1 propyl] amino-2 cyclohéxane carboxylique [compound 7]” is 530-fold lower in IC50: 8e-07 M for the first, 1.5e-09 M for the second.

Going from “Acide [N[N(hydroxyamino) carbonyl-1 phényl-3] propyl]-2 carboxamido-2 cyclohéxanoïque [compound 11]” to “N[N-hydroxyamino) carbonyl-3 benzyl-2 oxo-1 propyl] phényl-2 β-alanine [compound 6]”, the IC50 falls from 2e-09 M to 1e-09 M (2-fold).

system: souris; assay: Hot plate test (licking and jump reflex, plate at 55°C); type: in vivo; settings: mouse, intracerebroventricular, 50 )g, plate 55°C, cut off 30 s
Description: Il concerne le réflexe de lèchement et de saut de la souris sur une plaque chauffée à 55°C selon la méthode de Jacob et coll. (Arch. Int. Pharmacodyn. 122, 287-300, 1959 : 133, 296-300, 1961).
Administrés par voie intracérébroventriculaire chez la souris, les inhibiteurs testés présentent un effet propre à la fois sur le temps de latence du saut et sur celui des lèchements. Ces effets sont reversés par la naloxone (antagoniste morphinique).
Le cut off correspond au moment où la souris est enlevée si elle n'a pas sauté ;

“Acide N[(hydroxy amino carbonyl)-3 benzyl-2 oxo-1 propyl] amino-2 cyclohéxane carboxylique [compound 7]” was tested, and the “Lèchements (s)” value was 26,2 s.

In the case of “Acide [N[N(hydroxyamino) carbonyl-1 phényl-3] propyl]-2 carboxamido-2 cyclohéxanoïque [compound 11]”, the “Lèchements” value is reported as 30 s.

same assay, conditions: mouse, intracerebroventricular, 50 )g, plate 55°C, cut off 240 s

“Acide N[(hydroxy amino carbonyl)-3 benzyl-2 oxo-1 propyl] amino-2 cyclohéxane carboxylique [compound 7]” and “Acide [N[N(hydroxyamino) carbonyl-1 phényl-3] propyl]-2 carboxamido-2 cyclohéxanoïque [compound 11]” are the same in “Saut” value: 240 s for the first, 240 s for the second.

— patent EP0262053A2, “Amino-acid derivatives, their preparation and pharmaceutical compositions containing them” (CENTRE NATIONAL DE LA RECHERCHE SCIENTIFIQUE (CNRS), priority 1986, dated 1988)
